Source: patent publication US20100130600A1, “LIPOPROTEIN LIPASE AND ITS EFFECT ON STATIN TREATMENTS” (CEDARS-SINAI MEDICAL CENTER, priority 2007, published 2010)

Test: Post-CABG Trial: lipid response to lovastatin therapy (baseline vs post-treatment lipid levels)
Format: in vivo, human
Experimental: As described herein, the inventors asked whether LPL haplotypes influence response to lipid-lowering therapy. They studied 830 subjects from the Post-Coronary Artery Bypass Graft trial, in which subjects with at least one patent saphenous vein graft were treated moderately or aggressively with lovastatin. A lipid profile was obtained at baseline and 4-5 years after treatment. 12 SNPs spanning the 3′ end of LPL were genotyped using the 5′-exonuclease (Taqman MBG) reaction. Haplotypes were constructed using the accelerated expectation maximization algorithm implemented in the program Haploview. Association with lipid response was evaluated using analysis of covariance (ANCOVA). Age, body mass index, race, current smoking status, time between CABG and study enrollment, and lovastatin treatment group were taken as covariates in the association analyses. […] Conversely, Haplotypes 6, 7, and 8 were each associated with increased HDL-C response to therapy compared to respective non-carriers. Haplotype 2 was associated with a smaller increment in triglycerides (Haplotype 2 carriers: +2.6% versus non-carriers: +11.8% change in triglycerides, P=0.02). These effects of LPL haplotypes on HDL-C and triglyceride response were independent of whether subjects were in the intensive or moderate treatment group. […] The most common haplotype, haplotype 1, was protective against graft worsening or occlusion. LPL may influence atherosclerosis risk through pleiotropic effects on each aspect of the metabolic syndrome.
This genetic association study is ancillary to the Post-Coronary Artery Bypass Graft Trial (Post-CABG Trial) (Taylor K D, Genet Med 2004, 6: 481-486; The Post Coronary Artery Bypass Graft Trial Investigators, N Engl J Med 1997, 336: 153-162). A total of 1351 subjects from seven clinical centers throughout North America were included in the clinical trial and all were eligible as participants in this genetic ancillary study. Inclusion and exclusion criteria have been previously described (The Post Coronary Artery Bypass Graft Trial Investigators, N Engl J Med 1997, 336: 153-162). Subjects were randomly assigned for treatment to lower LDL-cholesterol levels with lovastatin, aggressively (target LDL 1.55-2.20 mmol/L (60-85 mg/dL)), cholestryramine added to lovastatin if necessary to reach target) or moderately (target LDL 3.36-3.62 mmol/L (130-140 mg/dL)). For the genetic study, DNA was isolated from 903 subjects following standard protocols. Follow-up complete angiographic data, lipid values, and DNA were available from 891 of these individuals. Subjects in this genetic study were collected in the latter years of the larger Post-CABG trial.
All demographic, family history, medical history, and clinical data were collected as part of the Post-CABG Trial.14 The progression of atherosclerosis was quantitatively determined by comparison of an initial angiogram at enrollment with a follow-up angiogram repeated an average of 4.3 years later. Baseline and follow-up angiography were obtained with catheterization techniques that permitted computer-assisted quantitative measurement. An initially patent graft was defined as having progression of atherosclerosis if there was a decrease of 0.6 mm or more in lumen diameter at the site of greatest change at follow-up. Subjects with “progression of atherosclerosis” were defined as those subjects with one or more grafts showing progression. Graft occlusion was also assessed. Baseline and post-treatment lipid levels (total cholesterol, TC; LDL-cholesterol, LDL-C; HDL-cholesterol, HDL-C; and triglycerides, TG) were obtained.
The primary phenotypes analyzed for association with LPL haplotypes were: a) the progression of atherosclerosis, and b) lipid response to lovastatin therapy. Secondary analyses included association of the LPL haplotypes with baseline lipid and systolic and diastolic blood pressure (SBP and DBP) measurements. […]

[1] = 891 post-CABG subjects, mean ± SD (range)
[2] = aggressive treatment group (target LDL 60-85 mg/dL, cholestyramine added if necessary)
[3] = moderate treatment group (target LDL 130-140 mg/dL)

For `CC[C@H](C)C(=O)O[C@H]1C[C@@H](C)C=C2C=C[C@H](C)[C@H](CC[C@@H]3C[C@@H](O)CC(=O)O3)[C@H]21` [lovastatin], the HDL-C response [1] was 13.8 ± 24.4 (−61.9-153.1) %, the LDL-C response [1] was −25.7 ± 20.6 (−78.8-45.9) % and the Total cholesterol response [1] was −15.3 ± 16.3 (−58.4-43.5) %. For the same compound, the Triglyceride response [1] was 7.5 ± 53.0 (−81.6-330.2) %, the “reduction in LDL-C” value (Post-CABG trial, overall) was 26% and the “reduction in total cholesterol (TC)” value (Post-CABG trial, overall) was 15%. For the same compound, the “reduction in LDL-C” value [2] was 37%, the “reduction in total cholesterol (TC)” value [2] was 23% and the “Response in HDL-C and triglycerides (TG)” value (aggressive versus moderate treatment group) was “did not differ between the two treatment groups”. For the same compound, the “Percent change in HDL-C” value (carriers of LPL haplotype 12-1, mean ± SD) was 12.6 ± 24.3 (568) %, the change in triglycerides (carriers of LPL haplotype 12-2) was “+2.6%” and the “Percent change in HDL-C” value (carriers of LPL haplotype 12-2, mean ± SD) was 12.4 ± 24.5 (295) %. The “Percent change in HDL-C” value (carriers of LPL haplotype 12-3, mean ± SD) was 14.2 ± 23.5 (262) %, the “Percent change in HDL-C” value (carriers of LPL haplotype 12-5, mean ± SD) was 11.4 ± 25.6 (61) % and the “Percent change in HDL-C” value (carriers of LPL haplotype 12-6, mean ± SD) was 24.8 ± 19.8 (52) %. The “Percent change in HDL-C” value (carriers of LPL haplotype 12-7, mean ± SD) was 21.9 ± 24.1 (44) %, the “Percent change in HDL-C” value (carriers of LPL haplotype 12-8, mean ± SD) was 23.0 ± 26.0 (43) % and the “reduction in LDL-C” value [3] was 14%. The “reduction in total cholesterol (TC)” value [3] was 7%, the “Percent change in HDL-C” value (non-carriers of LPL haplotype 12-1, mean ± SD) was 15.2 ± 24.2 (261) % and the change in triglycerides (non-carriers of LPL haplotype 12-2) was “+11.8%”. For the same compound, the “Percent change in HDL-C” value (non-carriers of LPL haplotype 12-2, mean ± SD) was 14.0 ± 24.2 (534) %, the “Percent change in HDL-C” value (non-carriers of LPL haplotype 12-3, mean ± SD) was 13.1 ± 24.7 (567) % and the “Percent change in HDL-C” value (non-carriers of LPL haplotype 12-5, mean ± SD) was 13.6 ± 24.2 (768) %. The “Percent change in HDL-C” value (non-carriers of LPL haplotype 12-6, mean ± SD) was 12.7 ± 24.4 (777) %, the “Percent change in HDL-C” value (non-carriers of LPL haplotype 12-7, mean ± SD) was 13.0 ± 24.3 (785) % and the “Percent change in HDL-C” value (non-carriers of LPL haplotype 12-8, mean ± SD) was 12.8 ± 24.4 (786) %.
